Paper PMC7782168, “Synthesis, telomerase inhibitory and anticancer activity of new 2-phenyl-4H-chromone derivatives containing 1,3,4-oxadiazole moiety” (Journal of Enzyme Inhibition and Medicinal Chemistry, 2020)

Tests used:
[1] = molecular target: T1, telomerase (Homo sapiens, UniProt O14746); test: Telomerase activity assay using MGC-803 cells extract; assay type: biochemical; conditions: mean ± SD
T1 construct: assayed for telomerase activity using MGC-803 cells extract; endogenous in cells; host or cells: MGC-803 cell extract
T1 sequence (O14746 whole entry): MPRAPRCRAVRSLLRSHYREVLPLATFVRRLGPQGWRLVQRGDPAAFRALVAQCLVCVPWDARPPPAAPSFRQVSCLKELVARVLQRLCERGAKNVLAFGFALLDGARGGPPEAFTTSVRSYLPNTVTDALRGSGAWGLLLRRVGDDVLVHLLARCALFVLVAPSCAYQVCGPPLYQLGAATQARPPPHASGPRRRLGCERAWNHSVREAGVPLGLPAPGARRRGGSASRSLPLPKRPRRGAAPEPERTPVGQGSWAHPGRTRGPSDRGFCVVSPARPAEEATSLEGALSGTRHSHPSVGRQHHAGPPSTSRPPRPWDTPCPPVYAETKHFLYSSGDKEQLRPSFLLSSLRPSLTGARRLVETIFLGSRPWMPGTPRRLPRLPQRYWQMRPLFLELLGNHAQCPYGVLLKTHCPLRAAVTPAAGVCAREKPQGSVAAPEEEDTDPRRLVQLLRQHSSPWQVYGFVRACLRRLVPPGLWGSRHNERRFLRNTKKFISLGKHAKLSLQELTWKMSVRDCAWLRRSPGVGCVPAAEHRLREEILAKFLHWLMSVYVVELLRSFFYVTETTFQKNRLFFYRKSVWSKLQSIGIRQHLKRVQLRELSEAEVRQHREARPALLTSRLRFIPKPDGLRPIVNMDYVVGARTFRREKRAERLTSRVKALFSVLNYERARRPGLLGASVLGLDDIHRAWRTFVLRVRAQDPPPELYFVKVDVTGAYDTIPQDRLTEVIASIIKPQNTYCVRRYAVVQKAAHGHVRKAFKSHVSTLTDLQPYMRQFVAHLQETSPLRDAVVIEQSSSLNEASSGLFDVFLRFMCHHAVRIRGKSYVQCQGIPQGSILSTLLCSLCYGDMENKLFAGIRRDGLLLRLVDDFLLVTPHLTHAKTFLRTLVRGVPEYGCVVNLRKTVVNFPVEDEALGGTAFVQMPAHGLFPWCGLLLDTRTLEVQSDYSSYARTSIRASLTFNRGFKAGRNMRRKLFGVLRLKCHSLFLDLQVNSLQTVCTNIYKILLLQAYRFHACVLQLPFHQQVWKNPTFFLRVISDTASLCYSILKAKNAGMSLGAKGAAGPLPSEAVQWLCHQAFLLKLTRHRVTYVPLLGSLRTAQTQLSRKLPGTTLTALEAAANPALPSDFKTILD
T1 sequence (O60832 2-514 partner limits assumed): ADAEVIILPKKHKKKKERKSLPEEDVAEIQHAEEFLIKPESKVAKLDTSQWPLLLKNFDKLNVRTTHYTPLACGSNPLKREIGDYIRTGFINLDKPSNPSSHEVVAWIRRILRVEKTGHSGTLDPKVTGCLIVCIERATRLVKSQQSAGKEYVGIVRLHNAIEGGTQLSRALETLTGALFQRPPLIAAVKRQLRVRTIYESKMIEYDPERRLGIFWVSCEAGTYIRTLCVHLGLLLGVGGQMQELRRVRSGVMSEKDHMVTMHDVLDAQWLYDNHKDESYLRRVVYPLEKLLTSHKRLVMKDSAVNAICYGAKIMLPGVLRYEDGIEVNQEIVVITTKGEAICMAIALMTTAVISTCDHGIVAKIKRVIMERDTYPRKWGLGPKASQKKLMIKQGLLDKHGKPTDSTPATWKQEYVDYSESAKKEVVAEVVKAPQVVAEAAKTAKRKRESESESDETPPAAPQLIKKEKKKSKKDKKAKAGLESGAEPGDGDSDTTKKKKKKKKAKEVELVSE
T1 sequence (Q9NPE3 whole entry partner): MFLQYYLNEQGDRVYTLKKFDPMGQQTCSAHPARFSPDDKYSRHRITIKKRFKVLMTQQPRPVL
T1 sequence (Q9NX24 whole entry partner): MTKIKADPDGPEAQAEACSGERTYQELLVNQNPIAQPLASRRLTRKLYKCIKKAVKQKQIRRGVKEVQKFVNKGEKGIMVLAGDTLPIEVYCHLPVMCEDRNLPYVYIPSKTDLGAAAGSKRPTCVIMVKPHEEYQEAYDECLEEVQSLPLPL
T1 sequence (Q9NY12 whole entry partner): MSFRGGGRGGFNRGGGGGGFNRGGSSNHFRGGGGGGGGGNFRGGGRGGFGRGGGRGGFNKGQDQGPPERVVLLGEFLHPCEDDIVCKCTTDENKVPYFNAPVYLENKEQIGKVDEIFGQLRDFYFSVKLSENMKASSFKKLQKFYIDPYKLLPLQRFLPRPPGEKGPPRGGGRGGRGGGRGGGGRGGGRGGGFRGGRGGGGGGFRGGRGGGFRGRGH

| SMILES | melting point | IC50 [1] |
| --- | --- | --- |
| COc1cc(OC)c2c(=O)c(OCC(=O)Nc3nnc(-c4cccc(Br)c4)o3)c(-c3ccc(OC)c(OC)c3)oc2c1 [B9, N-(5–(3-bromophenyl)-1,3,4-oxadiazol-2-yl)-2–(2-(3,4-dimethoxyphenyl)-5,7-dimethoxy-4-oxo-4H-chromen-3-yloxy)acetamide] | 204 to 206 °C | 2.9 ± 0.45 µM |
| COc1cc(OC)c2c(=O)c(OCC(=O)Nc3nnc(-c4cccc(Cl)c4)o3)c(-c3cc(OC)c(OC)c(OC)c3)oc2c1 [A6, N-(5–(3-chlorophenyl)-1,3,4-oxadiazol-2-yl)-2–(5,7-dimethoxy-4-oxo-2–(3,4,5-trimethoxyphenyl)-4H-chromen-3-yloxy)acetamide] | 206 to 208 °C | 7.35 ± 1.01 µM |
| COc1cc(OC)c2c(=O)c(OCC(=O)Nc3nnc(-c4ccco4)o3)c(-c3cc(OC)c(OC)c(OC)c3)oc2c1 [A31, 2–(5,7-dimethoxy-4-oxo-2–(3,4,5-trimethoxyphenyl)-4H-chromen-3-yloxy)-N-(5-(furan-2-yl)-1,3,4-oxadiazol-2-yl)acetamide] | 240 to 242 °C | 2.75 ± 0.19 µM |
| COc1cc(OC)c2c(=O)c(OCC(=O)Nc3nnc(-c4ccc(OC(F)(F)F)cc4)o3)c(-c3cc(OC)c(OC)c(OC)c3)oc2c1 [A19, 2–(5,7-dimethoxy-4-oxo-2–(3,4,5-trimethoxyphenyl)-4H-chromen-3-yloxy)-N-(5–(4-(trifluoromethoxy)phenyl)-1,3,4-oxadiazol-2-yl)acetamide] | 230 to 232 °C | 1.21 ± 0.29 µM |
| COc1cc(OC)c2c(=O)c(OCC(=O)Nc3nnc(-c4ccco4)o3)c(-c3ccc(OC)c(OC)c3)oc2c1 [B31, 2–(2-(3,4-dimethoxyphenyl)-5,7-dimethoxy-4-oxo-4H-chromen-3-yloxy)-N-(5-(furan-2-yl)-1,3,4-oxadiazol-2-yl)acetamide] | 233 to 235 °C | 2.82 ± 0.25 µM |
| COc1cc(OC)c2c(=O)c(OCC(=O)Nc3nnc(-c4cccc(Cl)c4)o3)c(-c3ccc(OC)c(OC)c3)oc2c1 [B6, N-(5–(3-chlorophenyl)-1,3,4-oxadiazol-2-yl)-2–(2-(3,4-dimethoxyphenyl)-5,7-dimethoxy-4-oxo-4H-chromen-3-yloxy)acetamide] | 220 to 222 °C | 15.4 ± 4.2 µM |
| COc1cc(OC)c2c(=O)c(OCC(=O)Nc3nnc(-c4ccc(Br)cc4)o3)c(-c3cc(OC)c(OC)c(OC)c3)oc2c1 [A8, N-(5–(4-bromophenyl)-1,3,4-oxadiazol-2-yl)-2–(5,7-dimethoxy-4-oxo-2–(3,4,5-trimethoxyphenyl)-4H-chromen-3-yloxy)acetamide] | 234 to 236 °C | 1.22 ± 0.29 µM |
| COc1cc(OC)c2c(=O)c(OCC(=O)Nc3nnc(-c4ccc(C(F)(F)F)cc4)o3)c(-c3ccc(OC)c(OC)c3)oc2c1 [B16, 2–(2-(3,4-dimethoxyphenyl)-5,7-dimethoxy-4-oxo-4H-chromen-3-yloxy)-N-(5–(4-(trifluoromethyl)phenyl)-1,3,4-oxadiazol-2-yl)acetamide] | 210 to 212 °C | 1.29 ± 0.2 µM |
| COc1cc(OC)c2c(=O)c(OCC(=O)Nc3nnc(-c4ccc(Cl)c(Cl)c4)o3)c(-c3cc(OC)c(OC)c(OC)c3)oc2c1 [A25, N-(5–(3,4-dichlorophenyl)-1,3,4-oxadiazol-2-yl)-2–(5,7-dimethoxy-4-oxo-2–(3,4,5-trimethoxyphenyl)-4H-chromen-3-yloxy)acetamide] | 222 to 224 °C | > 60 µM |
| COc1cc(OC)c2c(=O)c(OCC(=O)Nc3nnc(-c4ccccc4F)o3)c(-c3ccc(OC)c(OC)c3)oc2c1 [B4, 2–(2-(3,4-dimethoxyphenyl)-5,7-dimethoxy-4-oxo-4H-chromen-3-yloxy)-N-(5–(2-fluorophenyl)-1,3,4-oxadiazol-2-yl)acetamide] | 235 to 237 °C | 15.3 ± 2.71 µM |
| COc1cc(OC)c2c(=O)c(OCC(=O)Nc3nnc(-c4cccc(OC(F)(F)F)c4)o3)c(-c3ccc(OC)c(OC)c3)oc2c1 [B20, 2–(2-(3,4-dimethoxyphenyl)-5,7-dimethoxy-4-oxo-4H-chromen-3-yloxy)-N-(5–(3-(trifluoromethoxy)phenyl)-1,3,4-oxadiazol-2-yl)acetamide] | 207 to 209 °C | 20 ± 1.96 µM |
| COc1cc(OC)c2c(=O)c(OCC(=O)Nc3nnc(-c4ccccc4)o3)c(-c3ccc(OC)c(OC)c3)oc2c1 [B1, 2–(2-(3,4-dimethoxyphenyl)-5,7-dimethoxy-4-oxo-4H-chromen-3-yloxy)-N-(5-phenyl-1,3,4-oxadiazol-2-yl)acetamide] | 237 to 239 °C | > 60 µM |
| COc1cc(OC)c2c(=O)c(OCC(=O)Nc3nnc(-c4cccc(OCc5ccccc5)c4)o3)c(-c3cc(OC)c(OC)c(OC)c3)oc2c1 [A30, N-(5–(3-(benzyloxy)phenyl)-1,3,4-oxadiazol-2-yl)-2–(5,7-dimethoxy-4-oxo-2–(3,4,5-trimethoxyphenyl)-4H-chromen-3-yloxy)acetamide] | 188 to 190 °C | > 60 µM |
| COc1ccc(-c2nnc(NC(=O)COc3c(-c4ccc(OC)c(OC)c4)oc4cc(OC)cc(OC)c4c3=O)o2)cc1 [B22, 2–(2-(3,4-dimethoxyphenyl)-5,7-dimethoxy-4-oxo-4H-chromen-3-yloxy)-N-(5–(4-methoxyphenyl)-1,3,4-oxadiazol-2-yl)acetamide] | 206 to 208 °C | 14.3 ± 1.33 µM |
| COc1cccc(-c2nnc(NC(=O)COc3c(-c4cc(OC)c(OC)c(OC)c4)oc4cc(OC)cc(OC)c4c3=O)o2)c1 [A23, 2–(5,7-dimethoxy-4-oxo-2–(3,4,5-trimethoxyphenyl)-4H-chromen-3-yloxy)-N-(5–(3-methoxyphenyl)-1,3,4-oxadiazol-2-yl)acetamide] | 208 to 210 °C | 1.9 ± 0.42 µM |
| COc1cc(OC)c2c(=O)c(OCC(=O)Nc3nnc(-c4ccc5c(c4)OCCO5)o3)c(-c3cc(OC)c(OC)c(OC)c3)oc2c1 [A29, N-(5–(2,3-dihydrobenzo[b][1, 4]dioxin-6-yl)-1,3,4-oxadiazol-2-yl)-2–(5,7-dimethoxy-4-oxo-2–(3,4,5-trimethoxyphenyl)-4H-chromen-3-yloxy)acetamide] | 231 to 233 °C | > 60 µM |
| COc1cc(OC)c2c(=O)c(OCC(=O)Nc3nnc(-c4cccs4)o3)c(-c3ccc(OC)c(OC)c3)oc2c1 [B32, 2–(2-(3,4-dimethoxyphenyl)-5,7-dimethoxy-4-oxo-4H-chromen-3-yloxy)-N-(5-(thiophen-2-yl)-1,3,4-oxadiazol-2-yl)acetamide] | 238 to 240 °C | 3.75 ± 0.39 µM |
| COc1cc(OC)c2c(=O)c(OCC(=O)Nc3nnc(-c4cccc(F)c4)o3)c(-c3ccc(OC)c(OC)c3)oc2c1 [B3, 2–(2-(3,4-dimethoxyphenyl)-5,7-dimethoxy-4-oxo-4H-chromen-3-yloxy)-N-(5–(3-fluorophenyl)-1,3,4-oxadiazol-2-yl)acetamide] | 229 to 231 °C | 4.3 ± 0.77 µM |
| COc1cc(OC)cc(-c2nnc(NC(=O)COc3c(-c4cc(OC)c(OC)c(OC)c4)oc4cc(OC)cc(OC)c4c3=O)o2)c1 [A26, 2–(5,7-dimethoxy-4-oxo-2–(3,4,5-trimethoxyphenyl)-4H-chromen-3-yloxy)-N-(5–(3,5-dimethoxyphenyl)-1,3,4-oxadiazol-2-yl)acetamide] | 198 to 200 °C | 1.06 ± 0.11 µM |
| COc1cc(OC)c2c(=O)c(OCC(=O)Nc3nnc(-c4ccccc4)o3)c(-c3cc(OC)c(OC)c(OC)c3)oc2c1 [A1, 2–(5,7-dimethoxy-4-oxo-2–(3,4,5-trimethoxyphenyl)-4H-chromen-3-yloxy)-N-(5-phenyl-1,3,4-oxadiazol-2-yl)acetamide] | 222 to 224 °C | 21.1 ± 2.28 µM |
| COc1cc(OC)c2c(=O)c(OCC(=O)Nc3nnc(-c4cccc(C)c4)o3)c(-c3ccc(OC)c(OC)c3)oc2c1 [B12, 2–(2-(3,4-dimethoxyphenyl)-5,7-dimethoxy-4-oxo-4H-chromen-3-yloxy)-N-(5-m-tolyl-1,3,4-oxadiazol-2-yl)acetamide] | 221 to 223 °C | > 60 µM |
| COc1cc(OC)c2c(=O)c(OCC(=O)Nc3nnc(-c4ccccc4[N+](=O)[O-])o3)c(-c3cc(OC)c(OC)c(OC)c3)oc2c1 [A15, 2–(5,7-dimethoxy-4-oxo-2–(3,4,5-trimethoxyphenyl)-4H-chromen-3-yloxy)-N-(5–(2-nitrophenyl)-1,3,4-oxadiazol-2-yl)acetamide] | 204 to 206 °C | 6.98 ± 0.96 µM |
| COc1cc(OC)c2c(=O)c(OCC(=O)Nc3nnc(-c4ccccc4C)o3)c(-c3cc(OC)c(OC)c(OC)c3)oc2c1 [A13, 2–(5,7-dimethoxy-4-oxo-2–(3,4,5-trimethoxyphenyl)-4H-chromen-3-yloxy)-N-(5-o-tolyl-1,3,4-oxadiazol-2-yl)acetamide] | 205 to 207 °C | 25.1 ± 2.01 µM |
| COc1cc(OC)c2c(=O)c(OCC(=O)Nc3nnc(-c4cccc(Br)c4)o3)c(-c3cc(OC)c(OC)c(OC)c3)oc2c1 [A9, N-(5–(3-bromophenyl)-1,3,4-oxadiazol-2-yl)-2–(5,7-dimethoxy-4-oxo-2–(3,4,5-trimethoxyphenyl)-4H-chromen-3-yloxy)acetamide] | 202 to 204 °C | 2.01 ± 0.39 µM |
| COc1cc(OC)c2c(=O)c(OCC(=O)Nc3nnc(-c4cccc([N+](=O)[O-])c4)o3)c(-c3cc(OC)c(OC)c(OC)c3)oc2c1 [A14, 2–(5,7-dimethoxy-4-oxo-2–(3,4,5-trimethoxyphenyl)-4H-chromen-3-yloxy)-N-(5–(3-nitrophenyl)-1,3,4-oxadiazol-2-yl)acetamide] | 233 to 235 °C | 4.11 ± 0.6 µM |
| COc1cc(OC)c2c(=O)c(OCC(=O)Nc3nnc(-c4cccs4)o3)c(-c3cc(OC)c(OC)c(OC)c3)oc2c1 [A32, 2–(5,7-dimethoxy-4-oxo-2–(3,4,5-trimethoxyphenyl)-4H-chromen-3-yloxy)-N-(5-(thiophen-2-yl)-1,3,4-oxadiazol-2-yl)acetamide] | 224 to 226 °C | 2.22 ± 0.51 µM |
| COc1cc(OC)c2c(=O)c(OCC(=O)Nc3nnc(-c4ccc(C)cc4)o3)c(-c3cc(OC)c(OC)c(OC)c3)oc2c1 [A11, 2–(5,7-dimethoxy-4-oxo-2–(3,4,5-trimethoxyphenyl)-4H-chromen-3-yloxy)-N-(5-p-tolyl-1,3,4-oxadiazol-2-yl)acetamide] | 225 to 227 °C | 2.35 ± 0.48 µM |
